Like-named read-outs stand apart in the source and are kept apart here.
Assays:
[1] = target: T1, recombinant Arabidopsis thaliana ALS wild-type enzyme (WT—sensitive) (Arabidopsis thaliana, UniProt P17597); experiment: biochemical
T1 construct: Protein constructs contained an 85 amino acid N-terminal deletion (chloroplast transit peptide); Hexa-histidine tag (N); made in house
Method: (§1) Effects of SNPs identified in sequencing analysis on ALS activity were studied using A. thaliana. The ALS gene from A. thaliana and derivatives thereof were de novo synthesized and subcloned into pET-24d(+) (Life Technologies. Grand Island, NY, USA) using NcoI and XhoI restriction sites. Protein constructs contained an 85 amino acid N-terminal deletion (chloroplast transit peptide) and the addition of an N-terminal Hexa-histidine tag to facilitate purification.
(§2) Lysis was performed by at least two passes through a fluidizer, followed by centrifuging at 80000×g for 30 min at 4 °C. […] Fractions containing ALS protein were pooled and stored at −20 °C.
(§3) Inhibitors, purchased from Sigma as Pestanal standards (Sigma-Aldrich, Deisenhofen, Germany), were dissolved in DMSO and added to the reaction mixture. Inhibitors evaluated included imidazolinone, sulfonylurea, triazolopyrimidines, sulfonylamino-carbonyl- triazolinones, and pyrimidinyl (thio) benzoate herbicides. The reaction mixture was incubated at 30 °C for 60 min and stopped with 70 µl of H2SO4 (3 M). The reaction was then heated to 56 °C for 15 min to convert acetolactate into acetoin. […] For each inhibitor, resistance factors were calculated by dividing IC50 values for mutant and sensitive ALS.

[2] = test system: recombinant Arabidopsis thaliana ALS variant A205V; format: biochemical; details: IC50 mutant divided by IC50 sensitive ALS; max inhibitor concentration 1.00 × 10^−04 M
Method: as §1, §2, §3

[3] = test system: recombinant Arabidopsis thaliana ALS variant A205F; format: biochemical; details: IC50 mutant divided by IC50 sensitive ALS; max inhibitor concentration 1.00 × 10^−04 M
Method: as §1, §2, §3

[4] = test system: recombinant Arabidopsis thaliana ALS variant W574L; format: biochemical; details: IC50 mutant divided by IC50 sensitive ALS; max inhibitor concentration 1.00 × 10^−04 M
Method: as §1, §2, §3

[5] = test system: annual bluegrass (Poa annua L.); experiment: Whole plant confirmation of target-site resistance (visual control and dry biomass 28 days after treatment); format: in vivo
Method: Progeny of all POAAN-R3 plants subjected to genetic sequencing (RP1–RP8) were surface seeded into separate 10.2 × 10.2 cm greenhouse pots (Dillen Products/Myers Industries, Inc. Middlefield, OH, USA.) filled with a peat moss growing medium (ProMix BX Mycorrhizae. Premier Tech Horticulture, Quakertown, PA, USA) on 5 January 2015. The susceptible annual bluegrass population (S) included in our sequencing analysis was also seeded in the same fashion.
After seeding, pots were placed inside a growth chamber (Conviron A1000. Controlled Environments Inc, Hendersonville, NC) configured to provide 14 h day at 19 °C and a 10 h night at 10 °C. Light intensity inside the chamber averaged 296 μmol m^−2 s^−1. Irrigation was applied to each pot daily using distilled water and a misting nozzle. Annual bluegrass emergence was first noted on 16 January 2015. Plants remained inside the growth chamber until 26 January 2015. On this date, seedlings of each plant (RP1–RP8, S) were transplanted into individual 164 cm^3 plastic conical containers (SC10 Super Cell Cone-tainer. Stuewe and Sons. Tangent, OR 97389) filled with Sequatchie silt loam (fine-loamy, siliceous, semiactive, thermic humic Hapludult) measuring 6.2 in soil pH and 2.1 % in organic matter content. Transplants were replicated such that 32 plastic conical containers were created for each annual bluegrass plant analyzed in previous experiments (RP1–RP8, S). Immediately after transplanting, plastic conical containers were placed in a glasshouse located at the University of Tennessee (Knoxville, TN, USA; 35.56, 83.56). Peak light intensity in this glasshouse averaged 714 μmol m^−2 s^−1 with day/night temperatures averaging 27/17 °C. Irrigation was applied daily using an overhead misting system and plants were not clipped prior to initiating this study.
Plants were allowed to acclimate to this glasshouse environment for 10 days prior to being treated with foramsulfuron (Revolver. Bayer Environmental Sciences. Research Triangle Park, NC, USA) at 29 g ha^−1, imazamox (Clearcast. BASF Corporation. Research Triangle Park, NC) at 140 g ha^−1, or simazine (Princep 4L. Syngenta Professional Products. Greensboro, NC) at 1120 g ha^−1. Per label recommendations, imazamox and simazine treatments included a non-ionic surfactant (Activator-90. Loveland Products Inc. Greeley, CO, USA) at 0.25 % v/v. All treatments were applied in an enclosed spray chamber (Generation III track sprayer. DeVries Manufacturing, Hollandale, MN, USA) using a water carrier at 215 L ha^−1 through an 8004 EVS nozzle (TeeJet, Technologies, Spraying Systems Co., Glendale Heights, IL, USA). These herbicide treatments were selected to confirm results of genetic sequencing that RP1–RP8 were resistant to sulfonylurea, imidazolinone, and photosystem II inhibiting herbicides. A non-treated control treatment was included with each resistant (RP1–RP8) and susceptible (S) plant for comparison. Herbicides were applied on 5 February 2015 when plants were at a two-to-three leaf stage, prior to annual bluegrass tiller formation.
Annual bluegrass control was visually assessed on a 0 (i.e., no control) to 100 % (i.e., complete kill) scale relative to the non-treated 28 days after treatment. After all control data had been collected, aboveground biomass was harvested from each plastic conical container at the soil line using scissors, dried at 100 °C for 3 days, and weighed.
Treatments were arranged as a 9 × 4 factorial with nine plant selections (i.e., RP1–RP8, S) and four herbicide treatments (i.e., foramsulfuron, imazamox, simazine, non-treated) in a completely randomized design with four replications and repeated in time and space during February 2015. Plants were the same age during both experimental runs.

[6] = concentration for 50 % inhibition of WT enzyme, max inhibitor concentration 1.00 × 10^−04 M, read-out: WT sensitivity [IC50]

T1 sequence (P17597 86-670): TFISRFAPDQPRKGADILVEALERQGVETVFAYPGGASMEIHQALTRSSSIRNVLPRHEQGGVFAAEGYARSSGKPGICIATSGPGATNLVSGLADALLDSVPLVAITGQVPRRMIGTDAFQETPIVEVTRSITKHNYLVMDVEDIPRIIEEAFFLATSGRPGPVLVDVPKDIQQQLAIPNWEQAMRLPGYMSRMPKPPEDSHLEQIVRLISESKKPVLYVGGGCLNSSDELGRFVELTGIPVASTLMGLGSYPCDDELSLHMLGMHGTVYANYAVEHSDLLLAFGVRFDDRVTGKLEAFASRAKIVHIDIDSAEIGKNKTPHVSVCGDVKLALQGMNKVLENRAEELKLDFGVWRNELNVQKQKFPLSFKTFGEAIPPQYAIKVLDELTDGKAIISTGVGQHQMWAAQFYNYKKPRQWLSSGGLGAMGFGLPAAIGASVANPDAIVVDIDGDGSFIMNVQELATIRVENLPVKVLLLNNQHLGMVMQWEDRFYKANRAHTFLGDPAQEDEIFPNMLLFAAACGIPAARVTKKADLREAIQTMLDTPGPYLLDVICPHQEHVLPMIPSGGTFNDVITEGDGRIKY

What does the source list for `COc1cc(OC)nc(Oc2cccc(Oc3nc(OC)cc(OC)n3)c2C(=O)O)n1` [Bispyribac]?
IC50 [1, 6]: 1.58 nM; Resistance factor A205V [2]: 11; Resistance factor A205F [3]: 7; Resistance factor W574L [4]: 7944

`COc1ncc(F)c2nc(S(=O)(=O)Nc3c(F)cccc3F)nn12` [Florasulam] was tested. Which IC50 [1, 6] did it give?
The IC50 was 3.43 nM.

And the “Resistance factor A205V” value [2]?
The value was 89.

And the “Resistance factor A205F” value [3]?
The value was 1.

And the “Resistance factor W574L” value [4]?
Its value is 370.

What does the source list for `COc1nn(C(=O)NS(=O)(=O)c2ccccc2OC(F)(F)F)c(=O)n1C` [Flucarbazone]?
IC50 [1, 6]: 24.5 nM; Resistance factor A205V [2]: 2; Resistance factor A205F [3]: 441; Resistance factor W574L [4]: 7

How did the IC50 [1] turn out when `COCc1cnc(C2=NC(C)(C(C)C)C(=O)N2)c(C(=O)O)c1` (centres unmarked) [Imazamox] was run?
The IC50 was 2930 nM.

What about the “Resistance factor A205V” value [2] of the same molecule?
Its value is 34.

What about the “Resistance factor W574L” value [4] of the same molecule?
The value was 34.

What about the “annual bluegrass control, resistant plants with the exception of RP6” value ([5]; 28 days after treatment, summary over RP1–RP5, RP7, RP8) of the same molecule?
The value was at most 11%.

What about the “Annual bluegrass biomass RP1” value ([5]; RP1, aboveground dry biomass 28 days after treatment, foramsulfuron 29, imazamox 140, simazine 1120 g ha^-1) of the same molecule?
The value was 84 % of nontreated control.

And the “Annual bluegrass control RP1” value ([5]; RP1 plants, 28 days after treatment, 2 to 3 leaf stage, foramsulfuron 29, imazamox 140, simazine 1120 g ha^−1)?
The value was 2%.

And the “Annual bluegrass biomass RP2” value ([5]; RP2, aboveground dry biomass 28 days after treatment, foramsulfuron 29, imazamox 140, simazine 1120 g ha^-1)?
The value was 66 % of nontreated control.

And the “Annual bluegrass control RP2” value ([5]; RP2 plants, 28 days after treatment, 2 to 3 leaf stage, foramsulfuron 29, imazamox 140, simazine 1120 g ha^−1)?
Its value is 0%.

And the “Annual bluegrass biomass RP3” value ([5]; RP3, aboveground dry biomass 28 days after treatment, foramsulfuron 29, imazamox 140, simazine 1120 g ha^-1)?
Its value is 94 % of nontreated control.

And the “Annual bluegrass control RP3” value ([5]; RP3 plants, 28 days after treatment, 2 to 3 leaf stage, foramsulfuron 29, imazamox 140, simazine 1120 g ha^−1)?
Its value is 0%.

And the “Annual bluegrass biomass RP4” value ([5]; RP4, aboveground dry biomass 28 days after treatment, foramsulfuron 29, imazamox 140, simazine 1120 g ha^-1)?
The value was 55 % of nontreated control.

And the “Annual bluegrass control RP4” value ([5]; RP4 plants, 28 days after treatment, 2 to 3 leaf stage, foramsulfuron 29, imazamox 140, simazine 1120 g ha^−1)?
Its value is 0%.

And the “Annual bluegrass biomass RP5” value ([5]; RP5, aboveground dry biomass 28 days after treatment, foramsulfuron 29, imazamox 140, simazine 1120 g ha^-1)?
The value was 49 % of nontreated control.

And the “Annual bluegrass control RP5” value ([5]; RP5 plants, 28 days after treatment, 2 to 3 leaf stage, foramsulfuron 29, imazamox 140, simazine 1120 g ha^−1)?
Its value is 3%.

And the “Annual bluegrass biomass RP6” value ([5]; RP6, aboveground dry biomass 28 days after treatment, foramsulfuron 29, imazamox 140, simazine 1120 g ha^-1)?
The value was 70 % of nontreated control.

What about the “Annual bluegrass control RP6” value ([5]; RP6 plants, 28 days after treatment, 2 to 3 leaf stage, foramsulfuron 29, imazamox 140, simazine 1120 g ha^−1) of the same molecule?
Its value is 16%.

And the “Annual bluegrass biomass RP7” value ([5]; RP7, aboveground dry biomass 28 days after treatment, foramsulfuron 29, imazamox 140, simazine 1120 g ha^-1)?
The value was 87 % of nontreated control.

What about the “Annual bluegrass control RP7” value ([5]; RP7 plants, 28 days after treatment, 2 to 3 leaf stage, foramsulfuron 29, imazamox 140, simazine 1120 g ha^−1) of the same molecule?
The value was 4%.

And the “Annual bluegrass biomass RP8” value ([5]; RP8, aboveground dry biomass 28 days after treatment, foramsulfuron 29, imazamox 140, simazine 1120 g ha^-1)?
Its value is 86 % of nontreated control.

What about the “Annual bluegrass control RP8” value ([5]; RP8 plants, 28 days after treatment, 2 to 3 leaf stage, foramsulfuron 29, imazamox 140, simazine 1120 g ha^−1) of the same molecule?
The value was 0%.

What about the “Annual bluegrass control S” value ([5]; susceptible (S) plants, 28 days after treatment, 2 to 3 leaf stage, foramsulfuron 29, imazamox 140, simazine 1120 g ha^−1) of the same molecule?
The value was 93%.

And the “Annual bluegrass biomass S” value ([5]; susceptible (S), aboveground dry biomass 28 days after treatment, foramsulfuron 29, imazamox 140, simazine 1120 g ha^-1)?
Its value is 3 % of nontreated control.

Which IC50 [1, 6] does the source give for `COc1cc(OC)nc(NC(=O)NS(=O)(=O)c2cc(CNS(C)(=O)=O)ccc2C(=O)O)n1` [Mesosulfuron] here?
Its IC50 is 1.33 nM.

What about the “Resistance factor A205V” value [2] of the same molecule?
Its value is 16.

What about the “Resistance factor A205F” value [3] of the same molecule?
Its value is 293.

And the “Resistance factor W574L” value [4]?
The value was 104.

What does the source list for `COc1cc(OC)n2nc(S(=O)(=O)Nc3c(Cl)ccc(C)c3Cl)nc2n1` [Metosulam]?
IC50 [1]: 0.441 nM; Resistance factor A205V [2]: 34; Resistance factor A205F [3]: 1656; Resistance factor W574L [4]: 107

With `COc1cc(OC)nc(NC(=O)NS(=O)(=O)c2ncccc2C(=O)N(C)C)n1` [Nicosulfuron] as the molecule, how does the IC50 [1] read?
The IC50 was 71.4 nM.

What about the “Resistance factor A205V” value [2] of the same molecule?
Its value is 30.

What about the “Resistance factor A205F” value [3] of the same molecule?
Its value is 1401.

And the “Resistance factor W574L” value [4]?
Its value is 35.

`CCCOc1nn(C(=O)[N-]S(=O)(=O)c2ccccc2C(=O)OC)c(=O)n1C.[Na+]` [Propoxycarbazone] was tested. Which “Resistance factor A205V” value [2] did it give?
Its value is 20.

And the “Resistance factor A205F” value [3]?
The value was 1185.

What about the “Resistance factor W574L” value [4] of the same molecule?
Its value is 309.

How did the IC50 [1, 6] turn out when `COc1cc(OC)nc(Sc2cccc3c2C(=O)OC3C)n1` (centres unmarked) [Pyriftalid] was run?
Its IC50 is 20000 nM.

What about the “Resistance factor A205V” value [2] of the same molecule?
Its value is 5.

What about the “Resistance factor A205F” value [3] of the same molecule?
The value was 5.

And the “Resistance factor W574L” value [4]?
Its value is 5.

Which results are given for `COc1cc(OC)nc(Sc2cccc(Cl)c2C(=O)O)n1` [Pyrithiobac]?
IC50 [1]: 0.742 nM; Resistance factor A205V [2]: 433; Resistance factor A205F [3]: 306; Resistance factor W574L [4]: 134,838

Which IC50 [1, 6] does the source give for `COc1nn(C(=O)NS(=O)(=O)c2c(C(=O)O)csc2C)c(=O)n1C` [Thiencarbazone] here?
Its IC50 is 24.8 nM.

What about the “Resistance factor A205V” value [2] of the same molecule?
Its value is 8.

What about the “Resistance factor A205F” value [3] of the same molecule?
The value was 62.

And the “Resistance factor W574L” value [4]?
The value was 16.

How did the IC50 [1, 6] turn out when `COc1nc(NC(=O)NS(=O)(=O)c2ccccc2C(F)(F)F)nc(C(F)(F)F)n1` [Tritosulfuron] was run?
Its IC50 is 18.7 nM.

And the “Resistance factor A205V” value [2]?
The value was 37.

And the “Resistance factor A205F” value [3]?
Its value is 5356.

And the “Resistance factor W574L” value [4]?
The value was 167.
